# Data from patent publication US8258169B2, “Pyrazole-4-N-alkoxycarboxamides as microbiocides” (Syngenta Crop Protection, LLC, priority 2008, dated 2012).
row,melting point [°C],SMILES
1,95 to 96,"CON(CCCc1c(Cl)cc(Cl)cc1Cl)C(=O)c1cn(C)nc1C(F)F [Compound 2.040, 3-difluoromethyl-1-methyl-1H-pyrazole-4-carboxylic acid methoxy-[3-(2,4,6-trichloro-phenyl)-propyl]-amide]"
2,111 to 114,"CCON(C(=O)c1cn(C)nc1C(F)F)C(C)Cc1c(Cl)cc(Cl)cc1Cl (centres unmarked) [Compound 1.032, 3-difluoromethyl-1-methyl-1H-pyrazole-4-carboxylic acid ethoxy-[1-methyl-2-(2,4,6-trichlorophenyl)-ethyl]-amide]"
